According to patent publication US6348478B1, “Biphenylamidine derivatives” (Teijin Limited, priority 1997, dated 2002):
Values joined by “and” are separate entries in the source; they are usually repeats but may differ in a detail not shown here. Equal values may be shown once.

Key:
human FXa = human FXa (Homo sapiens, UniProt P00742); experiment: Measurement of activated blood coagulation factor X (FXa)-inhibiting action; type: biochemical; conditions: substrate S-2765, 30 minutes incubation, A405, read-out: FXa inhibition activity (IC50)
Chain of human FXa (P00742 235-488 limits assumed): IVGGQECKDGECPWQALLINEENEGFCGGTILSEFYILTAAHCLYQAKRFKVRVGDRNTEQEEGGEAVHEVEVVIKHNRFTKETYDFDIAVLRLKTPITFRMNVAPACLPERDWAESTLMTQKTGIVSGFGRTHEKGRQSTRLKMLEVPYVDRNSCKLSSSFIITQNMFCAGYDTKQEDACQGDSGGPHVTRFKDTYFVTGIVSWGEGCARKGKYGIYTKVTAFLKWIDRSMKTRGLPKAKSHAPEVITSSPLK
Chain of human FXa (P00742 41-179 partner limits assumed): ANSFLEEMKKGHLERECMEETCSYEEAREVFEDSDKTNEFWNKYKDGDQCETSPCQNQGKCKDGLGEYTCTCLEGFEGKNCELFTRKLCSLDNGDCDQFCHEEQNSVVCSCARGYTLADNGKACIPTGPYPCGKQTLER
Protocol: Measurement of activated blood coagulation factor X (FXa)-inhibiting action
(§1) A specimen was dissolved in water or in water containing an organic solvent (DSMO, ethanol or methanol) in a proper concentration to prepare a specimen. 70 μl of the specimen stepwisely diluted with water was mixed with 90 μl of a 100 mM Tris buffer solution (pH 8.4), 20 μl of a 50 mM Tris buffer solution (pH 8.4) of 50 mU/ml human FXa, and a 2 mM substrate (Daiichikagaku. S-2765), incubated for 30 minutes, mixed with 50 μl of 50% acetic acid, and then subjected to the measurement of absorbance (A405). A blank was prepared by adding the Tris buffer solution instead of the FXa, and a control was prepared by adding water instead of the specimen. A 50% inhibition activity (IC50) was determined, and used as the index of the FXa-inhibiting action.

human thrombin = biological target: T1, human thrombin (Homo sapiens, UniProt P00734); experiment: Measurement of thrombin inhibition action; type: biochemical; conditions: substrate S-2238, 30 minutes incubation, A405
T1 construct: 1U/ml human thrombin
Protocol: Measurement of thrombin inhibition action
as §1, with “70” for “A specimen was dissolved in water or in water containing an organic solvent (DSMO, ethanol or methanol) in a proper concentration to prepare a specimen. 70”, “1U/ml” for “50 mU/ml”, “thrombin,” for “FXa,”, “S-2238),” for “S-2765),”, “thrombin inhibition” for “FXa-inhibiting”

| SMILES | IC50 (human FXa) | IC50 (human thrombin) [µM] |
| --- | --- | --- |
| COC(=O)c1cc(COc2ccc(C(C)C)cc2)cc(-c2cccc(C(=N)N)c2)c1 [Example 3] | 1 to 10 µM |  |
| CC(C)c1ccc(OCc2cc(C(=O)O)cc(-c3cccc(C(=N)N)c3)c2)cc1 [Example 4] | 1 to 10 µM |  |
| COC(=O)c1cc(COc2cccc(CN)c2)cc(-c2cccc(C(=N)N)c2)c1 [Example 5] | 1 to 10 µM | > 100 |
| N=C(N)c1cccc(-c2cc(COc3cccc(CN)c3)cc(C(=O)O)c2)c1 [Example 6] | 1 to 10 µM | > 100 |
| COC(=O)c1cc(COc2cccc(CCN)c2)cc(-c2cccc(C(=N)N)c2)c1 [Example 9] | 1 to 10 µM | > 100 |
| N=C(N)c1cccc(-c2cc(COc3cccc(CCN)c3)cc(C(=O)O)c2)c1 [Example 10] | 1 to 10 µM | > 100 |
| COC(=O)c1cc(COc2cccnc2N)cc(-c2cccc(C(=N)N)c2)c1 [Example 11] | 10 to 100 µM | > 100 |
| COC(=O)c1cc(COc2ccc(C)cc2N)cc(-c2cccc(C(=N)N)c2)c1 [Example 12] | 1 to 10 µM | > 100 |
| COC(=O)c1cc(COc2cccc(N)c2)cc(-c2cccc(C(=N)N)c2)c1 [Example 13] |  | > 100 |
| COC(=O)c1cc(COc2cccc(CO)c2)cc(-c2cccc(C(=N)N)c2)c1 [Example 15] | 1 to 10 µM and 10 to 100 µM |  |
| CNc1ccc(OCc2cc(C(=O)OC)cc(-c3cccc(C(=N)N)c3)c2)cc1 [Example 16] |  | 10 to 100 |
| COC(=O)c1cc(COc2ccc3c(c2)CNC3)cc(-c2cccc(C(=N)N)c2)c1 [Example 18] | 0.1 to 1 µM |  |
| COC(=O)c1cc(COc2ccc3c(c2)CN(C(C)=N)C3)cc(-c2cccc(C(=N)N)c2)c1 [Example 19] | 0.1 to 1 µM | 10 to 100 |
| COC(=O)c1cc(-c2cccc(C(=N)N)c2)ccc1COc1cccc(CN)c1 [Example 20] | 10 to 100 µM | > 100 |
| COC(=O)c1cc(COCc2ccccc2)cc(-c2cccc(C(=N)N)c2)c1 [Example 23] | 1 to 10 µM |  |
